Molecules are shown by their SMILES.

This experiment deals with T1, Cholecystokinin receptor type A (Rattus norvegicus, UniProt P30551).
T1 sequence (P30551 whole entry): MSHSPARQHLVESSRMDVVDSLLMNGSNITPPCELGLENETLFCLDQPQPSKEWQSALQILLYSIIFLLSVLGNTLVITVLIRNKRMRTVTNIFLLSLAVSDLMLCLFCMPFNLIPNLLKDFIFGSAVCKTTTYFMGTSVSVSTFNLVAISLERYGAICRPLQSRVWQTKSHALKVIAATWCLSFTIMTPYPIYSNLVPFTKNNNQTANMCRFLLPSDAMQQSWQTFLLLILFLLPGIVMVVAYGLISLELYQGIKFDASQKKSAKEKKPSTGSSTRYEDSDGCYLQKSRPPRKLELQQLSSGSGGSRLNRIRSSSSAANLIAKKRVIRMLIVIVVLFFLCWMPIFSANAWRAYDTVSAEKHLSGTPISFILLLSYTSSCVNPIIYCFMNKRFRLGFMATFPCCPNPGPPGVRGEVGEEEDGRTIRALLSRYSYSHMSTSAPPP
As to the kind of experiment: Inhibition of binding of [125I]- CCK-33 to rat pancreas.
Consider `CCCCCN(CCCCC)C(=O)C(CCC(=O)O)NC(=O)c1ccc(Cl)c(Cl)c1` (stereo not given) [LORGLUMIDE], for which the IC50 came to 18 nM.

As for `CCCCCN(CCCCC)C(=O)C(CCC(=O)O)NC(=O)Nc1cccc(OC)c1` (single isomer, unassigned; 13), the IC50 came out at 540 nM.

On to `CCCCCN(CCCCC)C(=O)C(CCC(=O)N1CCCC1)NC(=O)Nc1ccc(Cl)cc1` (stereo not given), for which the IC50 was 680 nM.

`CCCCCN(CCCCC)C(=O)C(CCC(=O)OCc1ccccc1)NC(=O)Nc1ccc(Cl)cc1` (stereo not given) yielded an IC50 of 9300 nM.

Take `CCCCCN(CCCCC)C(=O)C(CCC(=O)N1CCCC1)NC(=O)Nc1cccc(OC)c1` (single isomer, unassigned; 15): the IC50 was found to be 170 nM. This IC50 lies about 55-fold lower than the previous one.

In the case of `CCCCCN(CCCCC)C(=O)C(CCC(=O)O)NC(=O)Nc1cccc(OC)c1` (single isomer, unassigned; 14), the IC50 was 4.5 nM. This IC50 is about 38-fold lower than that of the compound before.

`CCCN(CCC)C(=O)C(CCC(=O)O)NC(=O)c1ccccc1` (stereo not given) [PROGLUMIDE] yielded an IC50 of 250000 nM.

`CCCCCN(CCCCC)C(=O)C(CCC(=O)N1CCCC1)NC(=O)Nc1cccc(OC)c1` (single isomer, unassigned; 16) registered an IC50 of 120 nM.

For `CCCCCN(CCCCC)C(=O)C(CCC(=O)OCC)NC(=O)Nc1ccc(Cl)cc1` (stereo not given), the IC50 worked out at 1200 nM.

Take `O=C(O)CCC(NC(=O)c1cc2ccccc2[nH]1)C(=O)N(C1CCCCC1)C1CCCCC1` (single isomer, unassigned): the IC50 stood at 59 nM. Compared with the last compound, the IC50 is about 20-fold lower.

The record behind these values is ChEMBL document CHEMBL1125047, “Novel glutamic acid derived cholecystokinin receptor ligands” (J Med Chem, 1990).
